Test results: patent publication US20180093956A1, “SUBSTITUTED PHTHALAZINES” (AbbVie Inc., priority 2015, published 2018)

Assays:
[1] = test system: H4K20me3 in PC-3 cells (SUV420H1 cellular activity); assay: H4K20me3 Cellular PD Assay (high content microscopy); assay type: cell-based; conditions: Homo sapiens, treated for 72 hours, H4K20me3 immunofluorescence, read-out: H4K20me3 Inhibition EC50
Description: A high content microscopy-based PD assay was used to analyze the decrease of H4K20me3 upon inhibition of SUV420H1 cellular activity. PC-3 cells were plated at 3,000 cells per well in black Collagen I coated 96-well plates (Perkin Elmer, #6005810) in RPMI supplemented with 10% heat inactivated FBS, 1% sodium pyruvate and 1% non-essential amino acids in a 37° C. tissue culture incubator. At 24 hours post seeding, cells were treated with the indicated compounds for 72 hours in an 8-point dose response using half log dilutions from […] and then fixed in 2% formaldhyde (Polysciences, Inc., #04018) for 10 minutes at room temperature. Cells were washed in PBS and permeablized in 0.1% Triton X-100 for 10 minutes at room temperature. After blocking in 1% BSA (Sigma, #A7030) in PBS for 1 hour at room temperature, a mouse monoclonal antibody directed toward H4K20me3 (Santa Cruz, #sc-134216) in antibody dilution buffer (0.3% BSA in PBS) was added for 16 hours at 4° C. Cells were then washed 3 times in PBS and an Alexa Fluor 555 conjugated goat anti-mouse (Life Technologies #A-21424) secondary antibody was added for 1 hour at room temperature. Hoechst 33342 diluted 1:10000 (Life Technologies #H3570) was also added during the secondary antibody incubation. Cells were washed 3 times in PBS and stored in PBS at 4° C. Fluorescent images were acquired within 24 hours on a Cell Insight (Thermo Fisher Scientific) using the Target Activation algorithm. Objects were identified via nuclear Hoescht staining, and changes in average mean intensity in the fluorescent signals of H4K20me3 were quantified using the HCS View software platform (Thermo Fisher Scientific).

SUV420H1 enzyme = SUV420H1 enzyme (Homo sapiens, UniProt Q4FZB7); assay: TR-FRET SAH SUV420H1 enzyme inhibition assay; assay type: biochemical; conditions: Histone Peptide H4(8-30)me1 and SAM, TR-FRET detection of SAH, read-out: TR-FRET SAH_SUV420H1 IC50
Sequence of SUV420H1 enzyme (Q4FZB7 whole entry): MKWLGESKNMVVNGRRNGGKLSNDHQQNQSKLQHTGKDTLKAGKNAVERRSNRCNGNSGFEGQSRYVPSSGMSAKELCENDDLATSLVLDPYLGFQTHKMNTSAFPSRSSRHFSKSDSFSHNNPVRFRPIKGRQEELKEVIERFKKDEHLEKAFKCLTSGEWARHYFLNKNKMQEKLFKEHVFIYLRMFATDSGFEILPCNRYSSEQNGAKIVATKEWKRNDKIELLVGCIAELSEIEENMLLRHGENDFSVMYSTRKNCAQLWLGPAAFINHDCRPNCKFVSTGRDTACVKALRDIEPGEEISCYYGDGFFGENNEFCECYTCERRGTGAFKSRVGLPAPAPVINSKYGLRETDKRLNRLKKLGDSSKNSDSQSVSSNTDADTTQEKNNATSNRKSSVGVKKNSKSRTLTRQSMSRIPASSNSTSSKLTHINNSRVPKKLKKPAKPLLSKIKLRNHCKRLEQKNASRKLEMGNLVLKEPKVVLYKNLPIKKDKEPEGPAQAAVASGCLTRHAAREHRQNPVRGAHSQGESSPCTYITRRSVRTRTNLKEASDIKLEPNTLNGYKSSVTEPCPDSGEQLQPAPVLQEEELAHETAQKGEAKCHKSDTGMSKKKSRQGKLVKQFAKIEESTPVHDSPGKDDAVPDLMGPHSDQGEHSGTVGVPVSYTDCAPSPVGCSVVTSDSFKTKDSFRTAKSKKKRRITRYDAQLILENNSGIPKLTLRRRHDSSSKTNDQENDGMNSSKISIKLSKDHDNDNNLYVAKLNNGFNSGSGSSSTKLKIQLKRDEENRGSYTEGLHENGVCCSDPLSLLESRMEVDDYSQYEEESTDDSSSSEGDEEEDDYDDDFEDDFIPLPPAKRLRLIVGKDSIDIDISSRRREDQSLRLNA
Description: Test compounds were dispensed by a Labcyte Echo in 384-well low volume assay plates with 3-fold serial dilutions from 50 μM to 0.00075 μM. 5 μL of SUV420H1 enzyme (Abbvie) at 90 nM was added to all wells except for the no enzyme control wells and incubated for 30 minutes at room temperature before 5 μL of Histone Peptide H4(8-30)me1 (Anaspec) at 5 μM and SAM at 4 μM was added to all wells. The plates were incubated in a humidified chamber overnight at room temp and then 10 μL of the detection reagent that contained RIPA buffer (50 mM Tris-HCl, pH 8.0, 150 mM sodium chloride, 1.0% Igepal CA-630 (NP-40), 0.5% sodium deoxycholate and 0.1% sodium dodecyl sulfate) (Sigma) with 2 nM of Terbium chelate anti S-adenosyl-L-homocysteine (SAH) (Abbvie) antibody and Oregon Green labeled SAH at 4 nM was added. The plates were further incubated for 4 hours at room temperature. The plates were read in a Perkin Elmer Envision using a TR-FRET protocol with Excitation set at 335 nm and Emission at 520 and 495 nm. To generate dose response curves the data is normalized to percent inhibition by setting the average of the plus and minus enzyme control wells to 0% and 100% inhibition respectively. The ICso values for the compounds are generated by fitting the normalized data with Accelrys Assay Explorer 3.3 to a sigmoidal curve model using […], Y=(100*x^n)/(K^n+x^n), where Y is the measured response, x is the compound concentration, n is the Hill Slope and K is the IC50 and the lower and higher asymptotes are constrained to 0 and 100 respectively.

EC50 [1] | IC50 (SUV420H1 enzyme) | Compound
6.73 µM | 0.165 µM | O=C(Cn1cc(-c2nnc(NC3CCCC3)c3cc(Cl)c(Cl)cc23)cn1)NCCO [Example 56, 2-{4-[6,7-dichloro-4-(cyclopentylamino)phthalazin-1-yl]-1H-pyrazol-1-yl}-N-(2-hydroxyethyl)acetamide]
> 20 µM | 0.147 µM | Cn1cc(NC(=O)c2nnc(NC3CCCC3)c3cc(Cl)c(Cl)cc23)cn1 [Example 54, 6,7-dichloro-4-(cyclopentylamino)-N-(1-methyl-1H-pyrazol-4-yl)phthalazine-1-carboxamide]
6.57 µM | 0.188 µM | O=C(Cn1cc(-c2nnc(NC3CCCC3)c3cc(Cl)c(Cl)cc23)cn1)N1CCC(O)CC1 [Example 64, 2-{4-[6,7-dichloro-4-(cyclopentylamino)phthalazin-1-yl]-1H-pyrazol-1-yl}-1-(4-hydroxypiperidin-1-yl)ethanone]
0.505 µM | 0.111 µM | Cn1cc(-c2nnc(NC3CCCC3)c3cc(Cl)c(Cl)cc23)cn1 [Example 5, 6,7-dichloro-N-cyclopentyl-4-(1-methyl-1H-pyrazol-4-yl)phthalazin-1-amine]
7.91 µM | 0.174 µM | CC(C)(C)OC(=O)Cn1cc(-c2nnc(NC3CCCC3)c3cc(Cl)c(Cl)cc23)cn1 [Example 43, tert-butyl {4-[6,7-dichloro-4-(cyclopentylamino)phthalazin-1-yl]-1H-pyrazol-1-yl}acetate]
1.51 µM | 0.0753 µM | Clc1cc2c(NC3CCCC3)nnc(-c3ccsc3)c2cc1Cl [Example 7, 6,7-dichloro-N-cyclopentyl-4-(thiophen-3-yl)phthalazin-1-amine]
